According to patent publication EP3189850A1, “LIVER TARGETING OF CYCLIC PRES-DERIVED PEPTIDES OF HBV” (Ruprecht-Karls-Universität Heidelberg, priority 2015, dated 2017):
Bridge positions count the residues as written; N and C are the ends. Square brackets hold non-standard residues; d marks the D form. Ends that are not written are not given here. * marks the point of attachment. Myristoyl = CCCCCCCCCCCCCC(=O)*

How the values were obtained:
[1] = Biodistribution and γ-camera imaging of the 125I-labeled peptide (Figure 4); assay type: in vivo; conditions: γ-camera / biodistribution in NMRI mice
[2] = target: T1, NTCP (Mus musculus, UniProt O08705); assay: Scintigraphic imaging (125I) and MicroPET (68Ga) of labelled peptides with and without excess of Myrcludex B (Figure 3); assay type: in vivo; conditions: healthy mice; labelled peptide with and without excess of Myrcludex B; 20 and 120 min p.i.
T1 construct: from tissue; host or cells: liver of healthy mice, in vivo imaging
T1 sequence (O08705 1-362): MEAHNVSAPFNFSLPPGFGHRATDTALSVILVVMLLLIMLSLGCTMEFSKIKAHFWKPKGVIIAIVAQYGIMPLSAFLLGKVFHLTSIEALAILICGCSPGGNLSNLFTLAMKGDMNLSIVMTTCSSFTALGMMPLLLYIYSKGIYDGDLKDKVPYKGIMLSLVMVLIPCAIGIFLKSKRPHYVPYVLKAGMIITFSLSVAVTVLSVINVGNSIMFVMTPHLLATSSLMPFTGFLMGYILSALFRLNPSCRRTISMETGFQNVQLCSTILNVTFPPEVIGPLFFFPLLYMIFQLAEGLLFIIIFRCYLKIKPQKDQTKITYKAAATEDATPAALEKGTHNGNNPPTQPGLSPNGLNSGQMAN
Protocol: Ca. 1 mL of [^68Ga]Ga^3+ eluate (ca. 600-800 MBq) was added to a mixture of 20 µL of a 1mM solution of compound xy in DMSO and 10 µL of saturated solution of ascorbic acid in water. The pH of the resulting mixture was adjusted to 3.5-4.0 by careful addition of a 2.5 M sodium acetate solution in water. Complexation was achieved by heating to over 95°C for 5-10 minutes under constant stirring. The product was isolated by solid phase extraction with ethanol followed by evaporation. The residue was taken up in 1% bovine serum albumin solution and an appropriate amount (ca. 20-50 MBq) was used for the individual experiment in a volume not exceeding 100 µl. Mice were anesthetized with 1% sevoflurane (Abbott, Wiesbaden, Germany) and images were recorded using an Inveon small animal positron emission tomographic (PET) scanner (Siemens, Knoxville, TN) up to 60 minutes postinjection.

Row | Substance | elimination via the intestine (time) [1] | liver accumulation [1] | accumulation in the liver [2]
1 | myr-cyclo-intra[NP^*LGFFPDy] | ≤ 2 h | accumulates rapidly in the liver | 
2 | myr-cyclo[CNPLGFFPDC]y (Myristoyl-CNPLGFFPDC[dY]; disulfide 1-10; also: 125I-labelled) [cyclo[9-16]myr, myristoylated Cys-HBVpreS9-16-Cys-D-Tyr cyclized via disulfide bridge of the two cysteines] |  |  | NTCP specific accumulation in the liver
